# US9364479B2, “Use of a receptor-type kinase modulator for treating polycystic kidney disease” (SYMPHONY EVOLUTION, INC., priority 2010, dated 2016)
# pIC50: −log10 of the molar value. Marks after values point to notes of the source that are not given here.
# What was measured:
# [1] = test system: A431 human epidermoid carcinoma xenograft; assay: A431 xenograft model, tumor growth; type: in vivo, mouse; details: for ED50: Mus musculus
# Procedure: Female severe combined immunodeficient mice and female athymic nude mice (NCr), 5 to 8 weeks of age and weighing ˜20 to 25 g, were purchased from The Jackson Laboratory and Taconic, respectively. The animals were housed at the Exelixis vivarium facilities according to guidelines outlined by the Exelixis Institutional Animal Care and Use Committee. During all studies, animals were provided food and water ad libitum and housed in a room conditioned at 70° F. to 75° F. and 60% relative humidity.
# Before treatment, H1975, A431, or MDA-MB-231 cells were harvested from exponentially growing cultures, detached by brief trypsinization, washed twice in cold HBSS, resuspended in ice-cold HBSS, and implanted either s.c. (H1975, 3×10^6 cells per mouse) or i.d. (A431, 1×10^6 cells per mouse) into the dorsal hind flank or s.c. into the mammary fat pad (MDA-MB-231, 1×10^6 cells per mouse). Palpable tumors were measured by caliper twice weekly until the mean tumor weight was in the range of ˜80 to 120 mg. Tumor weight was determined by measuring perpendicular diameters with a caliper and multiplying the measurements of diameters in two dimensions: tumor […]. Tumor weight (mg) was extrapolated from tumor volume (mm3) by assuming a conversion factor of 1. On the appropriate day after implantation, mice were grouped (10 mice per group) such that the group mean tumor weight was ˜100±15 mg. The mean tumor weight of each animal in the respective control and treatment groups was determined twice weekly during the dosing periods. Tumor xenografts were established in female mice and allowed to reach approximately 100 mg prior to treatment. An example is described in Gendreau S B, Ventura R, Keast P, et al., Inhibition of the T790M Gatekeeper Mutant of the Epidermal Growth Factor Receptor by EXEL-7647, Clin Cancer Res 3713, 13(12) (2007), which is hereby incorporated by reference.
# (§1) The response of tumors to treatment was determined by comparing the mean tumor weight of the treatment group with the appropriate control group. Percentage inhibition of tumor growth was determined with the following formula: Percentage inhibition=100×[1−(Xf−Xo)/(Yf−Yo)], where Xf and Yf are the mean tumor weights of the treatment and control groups, respectively, on day f, and Xo and Yo are the mean tumor weights of treatment and control groups respectively, on day zero (staged tumor weights after grouping)
# [2] = test system: Dopamine, Non-selective; assay: NovaScreen assay; type: binding
# [3] = target: KDR (Homo sapiens, UniProt P35968); assay: Cellular autophosphorylation assay; type: cell-based
# [4] = target: EphA2 (Homo sapiens, UniProt P29317); assay: EphA2 autophosphorylation ELISA, PC-3 cells; type: cell-based; details: read-out: Cellular IC50, autophosphorylation
# Procedure: The EphA2 autophosphorylation ELISA utilized PC-3 (ATCC) cells. Cells were seeded at 2.5×10^4 cells/well onto 96-well microtiter plates (Costar 3904), in DMEM (Cellgro) containing 10% FBS (Heat-Inactivated, Hyclone), 1% penicillin-streptomycin (Cellgro), and 1% NEAA solution (Cellgro). The cells were then incubated at 37° C., 5% CO2 for 16 h. Growth media was replaced with serum-free DMEM and cells were incubated for an additional 24 hr. […] Negative control wells were not treated with growth factor. After treatment, media was removed, the cell monolayer washed with cold PBS and immediately lysed with cold lysis buffer. Lysates were centrifuged and incubated into 96-well streptavidin-coated plates (Pierce) coated with biotin-conjugated, mouse anti-phosphotyrosine, PY20 (2 μg/ml, Calbiochem). Plates were incubated with rabbit polyclonal anti-EphA2, C-20 (1:500, Santa Cruz Biotechnology, Inc), followed by secondary antibody (HRP-conjugated, goat anti-rabbit IgG, 1:1000 from Cell Signaling) and the addition of a luminol-based substrate solution. Plates were read with a Victor spectrophotometer (Wallac).
# [5] = test system: Estrogen; assay: NovaScreen assay; type: binding
# [6] = test system: Muscarinic, Non-selective, Central; assay: NovaScreen assay; type: binding
# [7] = test system: Adrenergic, Alpha 1, Non-selective; assay: NovaScreen assay; type: binding
# [8] = test system: Phospho ERK Thr203/Tyr204; assay: Immunohistochemical analysis of phosphorylation in H1975 xenografts; type: in vivo, mouse; details: 14-day dosing
# Procedure: For immunohistochemical analysis of H1975, MDA-MB-231 and other xenografts, tumors were excised after euthanasia and fixed in zinc fixative (BD Biosciences) for 48 h before being processed into paraffin blocks. Serial sections at 5 μm were obtained from the area of largest possible surface for each tumor and stained using standard methods. The following antibodies were used: Ki67 (SP6; Labvision), CD31 (MECA.32; BD Biosciences), pERK^Thr202/Tyr204 (phospho-p44/42 mitogen-activated protein kinase; Cell Signaling Technology), pAKT^Ser473 (Cell Signaling Technology), and pEGFR^Tyr1068 (Cell Signaling Technology). For immunofluorescent staining, sections were then incubated with Alexa 594-conjugated goat anti-rabbit secondary antibody (Invitrogen) and mounted in Fluorescent Mounting Medium (DAKO) containing 4′,6-diamidino-2-phenylindole (Molecular Probes) as a nuclear counterstain. Fluorescent staining was visualized using a Zeiss Axiolmager and digitally captured using a Zeiss high-resolution camera coupled to AxioVision image analysis software. Two to three nonoverlapping representative fields were captured at ×200 or ×400 magnification depending on histologic readout and quantified using the integrated morphometric analysis functions in Metamorph software (Universal Imaging Corp.). Apoptotic cells were detected using terminal deoxynucleotidyl transferase-mediated dUTP nick end labeling in situ cell death detection kit according to the manufacturer's instructions (Roche Diagnostics GmbH).
# CD31-positive tumor vessels, Ki67-positive proliferating cells, and pERK staining in each tumor section were identified and quantified using the integrated morphometric analysis functions in the ACIS automatic cellular imaging system (Clarient, Inc.) and reviewed by a blinded observer. Number of CD31-positive vessels were identified across 5 to 10 randomly chosen fields of equal size at ×100 magnification in viable tumor tissue and calculated as number of vessels per square millimeter for each tumor, averaged for each treatment group, and compared with vehicle-treated controls. Percentage Ki67-positive cells were calculated as the ratio between Ki67-positive cells divided by the total number of cells identified across 5 to 10 randomly chosen fields of equal size in viable tumor tissue. The results for each tumor and treatment group were averaged and compared with vehicle-treated controls. The level of pERK staining was determined as described above and calculated as the ratio of antibody staining divided by the total number of cells identified, averaged for each treatment group, and compared with vehicle-treated controls.
# Results are presented as mean±SD or SE as indicated for each graph or table. For IC50 comparison in the A431 cell viability experiment, two sample Student's t tests were applied to determine P values for each IC50 pair assuming that the random fluctuations of replicates around the dose-response curve are distributed [log]normally with the individual replicates used as the ‘sample size’ for the t test (nine point dose response done in triplicate). For statistical analysis of immunohistochemical results from in vivo studies, two-tailed Student's t test analysis and Bonferroni correction were done to identify significant differences compared with vehicle control group (multiple use of a single vehicle control group) with a cumulative minimal requirement of P<0.05.
# [9] = test system: BT474 human tumor xenograft; assay: BT474 xenograft, tumor growth; type: in vivo; details: Mus musculus
# Procedure: as §1
# [10] = mouse, in vivo, 100 mg/kg/day
# Procedure: Throughout the dosing period, tumor size was measured twice weekly (where applicable), and body weight was measured daily. […] Tumors were excised at the termination of some studies and examined histologically for microvascular density (CD31 staining), proliferating cells (Ki67 staining), and necrosis (hematoxylin/eosin staining).
# Tolerability was monitored in these studies by daily measurement of body weight.
# [11] = test system: Adrenergic, Alpha 2, Non-selective; assay: NovaScreen assay; type: binding
# Sequence of KDR (P35968 20-1356, species assumed): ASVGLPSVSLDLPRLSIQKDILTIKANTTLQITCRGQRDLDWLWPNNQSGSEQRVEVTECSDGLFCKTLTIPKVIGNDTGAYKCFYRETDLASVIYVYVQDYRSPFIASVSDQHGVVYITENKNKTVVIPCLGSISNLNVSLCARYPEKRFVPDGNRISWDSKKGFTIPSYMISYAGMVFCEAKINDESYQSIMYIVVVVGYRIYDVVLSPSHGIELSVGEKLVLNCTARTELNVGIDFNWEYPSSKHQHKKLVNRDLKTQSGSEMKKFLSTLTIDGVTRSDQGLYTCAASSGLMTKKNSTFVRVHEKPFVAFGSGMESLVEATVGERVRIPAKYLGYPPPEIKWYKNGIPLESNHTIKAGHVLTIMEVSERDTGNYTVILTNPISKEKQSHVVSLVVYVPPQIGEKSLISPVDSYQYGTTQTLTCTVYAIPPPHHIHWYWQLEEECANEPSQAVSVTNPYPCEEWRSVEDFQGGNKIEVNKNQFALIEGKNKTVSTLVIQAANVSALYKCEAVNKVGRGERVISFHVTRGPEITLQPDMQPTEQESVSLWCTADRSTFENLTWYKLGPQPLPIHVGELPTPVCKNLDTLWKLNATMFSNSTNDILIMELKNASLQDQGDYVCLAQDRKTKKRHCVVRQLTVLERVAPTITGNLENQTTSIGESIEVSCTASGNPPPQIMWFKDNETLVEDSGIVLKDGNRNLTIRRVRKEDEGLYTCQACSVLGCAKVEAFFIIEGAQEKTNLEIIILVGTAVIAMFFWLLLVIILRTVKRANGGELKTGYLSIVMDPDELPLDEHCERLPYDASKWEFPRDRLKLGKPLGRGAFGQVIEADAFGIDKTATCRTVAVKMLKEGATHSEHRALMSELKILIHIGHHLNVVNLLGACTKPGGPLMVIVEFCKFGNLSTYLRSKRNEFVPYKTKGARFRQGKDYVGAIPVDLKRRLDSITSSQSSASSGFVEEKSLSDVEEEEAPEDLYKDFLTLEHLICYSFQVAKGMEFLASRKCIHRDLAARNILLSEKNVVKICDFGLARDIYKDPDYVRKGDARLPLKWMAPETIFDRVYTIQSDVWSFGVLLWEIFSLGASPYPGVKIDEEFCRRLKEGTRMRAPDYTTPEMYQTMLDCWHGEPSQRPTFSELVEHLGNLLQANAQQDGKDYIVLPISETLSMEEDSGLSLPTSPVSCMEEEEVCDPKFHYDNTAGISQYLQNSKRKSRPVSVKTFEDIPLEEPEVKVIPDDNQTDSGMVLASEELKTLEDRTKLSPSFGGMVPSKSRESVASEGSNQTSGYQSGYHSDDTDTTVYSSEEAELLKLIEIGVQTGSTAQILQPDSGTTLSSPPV
# Sequence of EphA2 (P29317 24-976): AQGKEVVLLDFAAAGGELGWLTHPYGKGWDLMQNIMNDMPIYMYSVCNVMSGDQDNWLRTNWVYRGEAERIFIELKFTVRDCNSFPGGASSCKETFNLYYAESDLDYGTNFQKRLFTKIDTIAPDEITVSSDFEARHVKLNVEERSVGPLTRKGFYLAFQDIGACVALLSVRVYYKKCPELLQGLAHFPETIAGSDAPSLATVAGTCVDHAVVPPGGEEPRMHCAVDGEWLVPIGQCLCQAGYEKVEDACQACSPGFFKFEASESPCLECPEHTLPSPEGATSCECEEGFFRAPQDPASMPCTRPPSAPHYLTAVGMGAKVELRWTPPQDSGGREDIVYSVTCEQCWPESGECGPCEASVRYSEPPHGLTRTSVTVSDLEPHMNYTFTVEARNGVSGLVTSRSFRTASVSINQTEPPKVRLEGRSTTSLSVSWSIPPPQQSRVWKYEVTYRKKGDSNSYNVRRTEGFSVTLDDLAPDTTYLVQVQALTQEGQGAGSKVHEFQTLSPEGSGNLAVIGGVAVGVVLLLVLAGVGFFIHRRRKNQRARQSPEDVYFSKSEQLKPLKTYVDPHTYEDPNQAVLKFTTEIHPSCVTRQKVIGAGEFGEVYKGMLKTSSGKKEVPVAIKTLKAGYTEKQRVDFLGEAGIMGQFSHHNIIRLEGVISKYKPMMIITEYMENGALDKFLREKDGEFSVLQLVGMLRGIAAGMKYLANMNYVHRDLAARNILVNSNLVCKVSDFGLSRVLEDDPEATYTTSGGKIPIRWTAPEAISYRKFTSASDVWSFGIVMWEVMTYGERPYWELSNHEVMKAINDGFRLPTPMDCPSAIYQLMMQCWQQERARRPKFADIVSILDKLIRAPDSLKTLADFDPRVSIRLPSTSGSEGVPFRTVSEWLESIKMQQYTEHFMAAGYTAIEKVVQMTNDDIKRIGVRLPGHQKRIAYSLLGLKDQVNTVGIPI
compound,measurement,setting,value
"COc1cc2c(Nc3ccc(Cl)c(Cl)c3F)ncnc2cc1OC[C@@H]1C[C@@H]2CN(C)C[C@@H]2C1 [XL-647, N-(3,4-dichloro-2-fluorophenyl)-7-({[(3aR,5r,6aS)-2-methyloctahydrocyclopenta[c]pyrrol-5-yl]methyl}oxy)-6-(methyloxy)quinazolin-4-amine]",tumor growth inhibition,"[1]; 10 mg/kg/day oral, 14 days",65%
same,final tumor weight (marked regression),"[1]; 100 mg/kg/day oral, 14 days, starting weight 109±20 mg",36 ± 15 mg
same,"tumor growth, in words","[1]; 10, 30, and 100 mg/kg/day oral, 14 days",significantly inhibited tumor growth in a dose dependent manner
same,ED50,"[1]; A-431, qd × 14",5.9 mg/kg
same,ED50,"[1]; A-431, qd × 28",3.8 mg/kg
same,"Inhibition, 10 μM XL-647",[2],34.88%
same,pIC50,[3],6.86
same,pIC50,[4],5.96
same,"Inhibition, 10 μM XL-647",[5],15.75%
same,pIC50,[6],5.59
same,"Inhibition, 10 μM XL-647",[6]; 10 μM,97.91%
same,"Inhibition, 10 μM XL-647",[7],49.40%
same,Phospho ERK Thr203/Tyr204 % Cells,[8]; 10 mg/kg,20 ± 4.3%
same,Phospho ERK Thr203/Tyr204 % Reduction,[8]; 10 mg/kg,11.8%
same,Phospho ERK Thr203/Tyr204 % Cells,[8]; 30 mg/kg,13 ± 4.9%
same,Phospho ERK Thr203/Tyr204 % Reduction,[8]; 30 mg/kg,41.8^a %
same,Phospho ERK Thr203/Tyr204 % Cells,[8]; 100 mg/kg,10 ± 3.7%
same,Phospho ERK Thr203/Tyr204 % Reduction,[8]; 100 mg/kg,57.1^a %
same,ED50,"[9]; BT-474, qd × 14",9.8 mg/kg
same,ED50,"[9]; BT-474, qd × 28",21.9 mg/kg
same,"tolerability, in words",[10],generally well-tolerated in mice without substantial body weight loss
same,pIC50,[11],5.74
same,"Inhibition, 10 μM XL-647",[11]; 10 μM,84.56%
